Literature values in patent US11904118B2, “Drug delivery medical device” (Micell Medtech Inc., priority 2010, dated 2024).

Target: FKBP12 (Homo sapiens, UniProt P62942)
Sequence (P62942 whole entry, species assumed): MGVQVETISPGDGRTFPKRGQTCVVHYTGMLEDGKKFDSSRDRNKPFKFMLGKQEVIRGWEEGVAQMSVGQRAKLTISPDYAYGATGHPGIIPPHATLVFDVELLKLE

FKBP12 binding [nM]	FKBP12 binding (nM)	Compound
1.8 to 2.6		CO[C@H]1C[C@@H]2CC[C@@H](C)[C@@](O)(O2)C(=O)C(=O)N2CCCC[C@H]2C(=O)O[C@H]([C@H](C)C[C@@H]2CC[C@@H](OCCO)[C@H](OC)C2)CC(=O)[C@H](C)/C=C(\C)[C@@H](O)[C@@H](OC)C(=O)[C@H](C)C[C@H](C)/C=C/C=C/C=C/1C [Everolimus, 40-O-(2-Hydroxyethyl)rapamycin]
	about 1.2 nM	CC[C@@H]1/C=C(\C)C[C@H](C)C[C@H](OC)[C@H]2O[C@@](O)(C(=O)C(=O)N3CCCC[C@H]3C(=O)O[C@H](/C(C)=C/[C@@H]3CC[C@H](Cl)[C@H](OC)C3)[C@H](C)[C@@H](O)CC1=O)[C@H](C)C[C@@H]2OC [Pimecrolimus]
0.2 to 0.4		C=CC[C@@H]1/C=C(\C)C[C@H](C)C[C@H](OC)[C@H]2O[C@@](O)(C(=O)C(=O)N3CCCC[C@H]3C(=O)O[C@H](/C(C)=C/[C@@H]3CC[C@@H](O)[C@H](OC)C3)[C@H](C)[C@@H](O)CC1=O)[C@H](C)C[C@@H]2OC [Tacrolimus]
	about the same as Sirolimus	CO[C@H]1C[C@@H]2CC[C@@H](C)[C@@](O)(O2)C(=O)C(=O)N2CCCC[C@H]2C(=O)O[C@H]([C@H](C)C[C@@H]2CC[C@@H](OC(=O)C(C)(CO)CO)[C@H](OC)C2)CC(=O)[C@H](C)/C=C(\C)[C@@H](O)[C@@H](OC)C(=O)[C@H](C)C[C@H](C)/C=C/C=C/C=C/1C [Temsirolimus, 42-[3-hydroxy-2-(hydroxymethyl)-2-methylpropanoate]rapamycin]
2.0 to 3.2		CO[C@H]1C[C@@H]2CC[C@@H](C)[C@@](O)(O2)C(=O)C(=O)N2CCCC[C@H]2C(=O)O[C@H]([C@H](C)C[C@@H]2CC[C@H](n3cnnn3)[C@H](OC)C2)CC(=O)[C@H](C)/C=C(\C)[C@@H](O)[C@@H](OC)C(=O)[C@H](C)C[C@H](C)/C=C/C=C/C=C/1C [Zotarolimus]
